Like-named read-outs stand apart in the source and are kept apart here.
How the values were obtained:
Type in all cases: in vivo, rat
[1] = test system: orchiectomized (ORX) Wistar rats; conditions: for Glans penis weight: listed as HB
Procedure: Protocol 3: Four-week-old sham-operated (sham, n=6) or orchiectomized (ORX, n=24) Wistar rats (Charles River Laboratories, MA) were subject to a 10-d Hershberger assay (surgically castrated peri-pubertal adult model) under the following experimental conditions: sham, ORX (vehicle), ORX (20 mg/kg HB orally), ORX (60 mg/kg HB orally), and ORX (0.4 mg/kg testosterone propionate subcutaneously, serving as a positive control for the assay). All procedures and measurements followed protocol 1, except no body composition measurements were taken. Limb grip strength was measured for control animals and animals receiving 60 mg/kg HB using a digital force gauge (Wagner Instruments model FDV5) by Product Safety Laboratories (Dayton, N.J.). After the rats were allowed to grip the screen with paws, the animals were quickly pulled until the paws released from the screen, and the required release force was recorded. Three trials on each animal were performed in triplicate, and significance was determined using Student's t test (p<0.05). In addition to the gastrocnemius muscle, androgen-sensitive tissues (ventral prostate, seminal vesicles, bulbocavernosus/levator ani muscle complex, glans penis, and Cowper's gland) were dissected out and weighed.
The muscle samples for histochemical analysis were taken from the middle section of the mixed-fiber gastrocnemius muscle of the castrated animals treated according to protocol 4 (described herein above) to allow for the observation of differences in fiber type distribution and cross-section area associated with ORX and HB treatments. Serial transverse cryosections (10 μm) were prepared from each muscle and were analyzed for myofibrillar adenosine triphosphatase (mATPase) histochemistry after alkaline (pH=9.5) preincubation. Fiber cross-section area and enzyme activity levels were determined from digitized images of the muscle cross-sections that were stored as gray-level pictures using ImageJ software (National Institutes of Health, Bethesda, Md.). […]

[2] = test system: orchiectomized (ORX) Wistar rats; experiment: 10-d Hershberger assay in ORX rats, subcutaneous HB (Protocol 4); conditions: for increase in gastrocnemius muscle mass: subcutaneous
Procedure: Protocol 4: Four-week-old sham-operated (sham, n=6) or orchiectomized (ORX, n=24) Wistar rats (Charles River Laboratories, MA) were subject to a 10-d Hershberger assay (surgically castrated peri-pubertal adult model) under the following experimental conditions: sham, ORX (vehicle), ORX (0.4 mg/kg HB subcutaneously), ORX (4 mg/kg HB subcutaneously), and ORX (0.4 mg/kg testosterone propionate subcutaneously, serving as a positive control for the assay). All procedures and measurements followed protocol 1. […]

[3] = Body composition and blood biochemistry, rats on high-protein diet, 24 d oral HB (Protocol 2); conditions: for Bone mineral content / Fat mass / Lean mass: DEXA
Procedure: Six-week-old male Wistar rats (180-220 g, Charles River Laboratories, MA) were housed in individual chambers in a room maintained at a constant room temperature with 12 h light-dark cycle. Animals had free access to food and water. Animals were allowed to adapt to new conditions for 7 d and handling the animals was carried out daily during this time to reduce the stress of physical manipulation. Animals were randomized into groups according to bodyweight 1 d prior to dosing.
Protocol 2: Three groups of Wistar rats (n=8), fed a high-protein diet containing 39.4% protein, 10.0% fat, 4.3% fiber, and 37.0% carbohydrates, resulting in 3.93 kcal/g energy value (#5779 diet, Testdiet/Purina, Richmond, Ind.), were gavaged daily for 24 d with 1 ml of vehicle (5% DMSO in corn oil), 20 or 60 mg/kg HB. All procedures and measurements followed protocol 1.
Blood samples were taken from overnight-fasted animals by heart puncture, collected in EDTA-coated tubes, centrifuged 1,500 g for 20 min, and separated plasma was stored at −80° C. until analysis. Glucose was measured in blood samples using a Lifescan glucometer (Johnson and Johnson, New Brunswick, N.J.). […] Plasma triglycerides and total cholesterol were measured by enzymatic colorimetric assays (Wako Diagnostics, Richmond, Va.). Total testosterone in plasma samples was quantified by an ELISA assay (DRG Diagnostics, Marburg, Germany).

[4] = test system: gastrocnemius muscle mRNA (insulin signaling pathway, myogenic transcription factors); experiment: Gene expression in gastrocnemius muscle, insulin signaling PCR array and RT-PCR; conditions: 60 mg/kg oral 24 d
Procedure: The body weight of each animal and the total amount of food consumed (accounted for spillage) were recorded every 2 d for the duration of the experiment. At the end of the experiment, blood was collected by heart puncture after CO2 inhalation and animal body composition was assessed by DEXA dual-energy X-ray absorptiometry analysis using a Lunar Prodigy Densitometer (GE Healthcare, Waukesha, Wis.). At necropsy, tissue weights were recorded. Tissue samples were collected by snap-freezing in liquid nitrogen and stored at −80° C. for further studies. Total RNA was isolated using Trizol, its quantity and purity were determined using a NanoDrop (Nanodrop Technologies, Wilmington, Del.).
Pooled RNA samples obtained from frozen skeletal muscle (gastrocnemius muscle biopsies of vehicle- (Ctr) and HB-treated animals) were used in a rat insulin signaling PCR array to measure mRNA response to HB. […] However, the magnitude of the differences varied (FIG. 11A).

[5] = ORX rats, 20 mg/kg oral daily 10 d
[6] = ORX rats, 60 mg/kg oral daily 10 d
[7] = ORX rats, 60 mg/kg oral per day 10 days
[8] = 0.4 mg/kg subcutaneous daily 10 d
[9] = 4 mg/kg subcutaneous daily 10 d
[10] = pooled gastrocnemius RNA, PCR array

CC[C@@H](C(C)C)[C@H](O)[C@@H](O)[C@@H](C)[C@H]1CC[C@H]2[C@@H]3COC(=O)[C@H]4C[C@H](O)[C@H](O)C[C@]4(C)[C@H]3CC[C@]12C [Compound 1, (22S,23S,24S)-2α,3α,22,23-tetrahydroxy-24 ethyl-β-homo-7-oxo-5α-cholestane-6-one]
increase in gastrocnemius muscle mass ([1]; ORX rats, 20 mg/kg oral 10 d): 13.8% | Bulbocavernosus/levator ani weight [1, 5]: 109.2 ± 8.6 mg | Cowper's gland weight [1, 5]: 11.2 ± 0.7 mg | Seminal vesicles weight [1, 5]: 37.3 ± 3.5 mg | Ventral prostate weight [1, 5]: 26.0 ± 2.5 mg | Glans penis weight ([1]; ORX rats, 20 mg/kg oral daily 10 d, 20 mg/kg): 55.3 ± 1.7 mg | increase in gastrocnemius muscle mass ([1]; ORX rats, 60 mg/kg oral 10 d): 10.3% | Bulbocavernosus/levator ani weight [1, 6]: 137.7 ± 9.9 mg | Cowper's gland weight [1, 6]: 12.5 ± 1.1 mg | Seminal vesicles weight [1, 6]: 34.7 ± 3.3 mg | Ventral prostate weight [1, 6]: 23.0 ± 2.4 mg | Glans penis weight ([1]; ORX rats, 60 mg/kg oral daily 10 d, 60 mg/kg): 59.6 ± 1.6 mg | Change in grip strength of lower extremities [1, 7]: 0.0851 ± 0.0197 kg | change in grip strength for front limbs [1, 7]: 0.2711 ± 0.0660 kg | increase in total number of type IIa and type IIb fibers ([1]; gastrocnemius, 20 or 60 mg/kg per day 10 d, independent of dose): approximately 60% | androgenic activity in the Hershberger assay ([1]; rat, in vivo): very low androgenic activity | Bulbocavernosus/levator ani weight [2, 8]: 131.3 ± 7.1 mg | Cowper's gland weight [2, 8]: 11.3 ± 0.5 mg | Glans penis weight [2, 8]: 50.7 ± 1.9 mg | Seminal vesicles weight [2, 8]: 29.0 ± 3.1 mg | Ventral prostate weight [2, 8]: 18.3 ± 1.2 mg | Bulbocavernosus/levator ani weight [2, 9]: 147.5 ± 6.9 mg | Cowper's gland weight [2, 9]: 10.5 ± 0.3 mg | Glans penis weight [2, 9]: 56.3 ± 3.3 mg | Seminal vesicles weight [2, 9]: 30.2 ± 1.2 mg | Ventral prostate weight [2, 9]: 23.2 ± 1.2 mg | increase in gastrocnemius muscle mass ([2]; one-fold dose of positive control (0.4 mg/kg)): 2.8% | increase in gastrocnemius muscle mass ([2]; ten-fold dose of positive control (4 mg/kg)): 9.1% | Body weight ([3]; 20 mg/kg oral daily 24 d): 337.6 ± 6.4 g | Body weight gain ([3]; 20 mg/kg oral daily 24 d): 98.3 ± 5.2 g | Gastrocnemius muscle ([3]; 20 mg/kg oral daily 24 d): 1.98 ± 0.01 g | Bone mineral content ([3]; 20 mg/kg oral daily 24 d): 7.5 ± 0.2 g | Fat mass ([3]; 20 mg/kg oral daily 24 d): 68.6 ± 3.1 g | Lean mass ([3]; 20 mg/kg oral daily 24 d): 246.8 ± 7.4 g | Body weight ([3]; 60 mg/kg oral daily 24 d): 335.8 ± 5.1 g | Body weight gain ([3]; 60 mg/kg oral daily 24 d): 91.1 ± 3.2 g | Gastrocnemius muscle ([3]; 60 mg/kg oral daily 24 d): 2.17 ± 0.03 g | Bone mineral content ([3]; 60 mg/kg oral daily 24 d): 7.4 ± 0.1 g | Fat mass ([3]; 60 mg/kg oral daily 24 d): 61.2 ± 3.8 g | Lean mass ([3]; 60 mg/kg oral daily 24 d): 258.6 ± 2.7 g | expression of EIF2B1 [4]: No changes | MYF5 mRNA upregulation ([4]; RT-PCR (FIG. 11C)): 1.3 fold | MYF6 mRNA upregulation ([4]; RT-PCR (FIG. 11C)): 1.3 fold | MYOD1 mRNA upregulation ([4]; RT-PCR (FIG. 11C)): 2.1 fold | MYOG (myogenin) mRNA upregulation ([4]; RT-PCR (FIG. 11C)): 1.7 fold | ADRA1D mRNA upregulation [4, 10]: 6.5 fold | FBP2 mRNA upregulation [4, 10]: 4.5 fold | IGF-2 mRNA upregulation [4, 10]: 1.4 fold | IGFBP1 mRNA upregulation [4, 10]: 2.5 fold | SREBP-1 mRNA upregulation [4, 10]: 2.5 fold

Reference: patent publication US20140128357A1, “METHODS OF PRODUCING AND USING BRASSINOSTEROIDS TO PROMOTE GROWTH, REPAIR AND MAINTENANCE OF SKELETAL MUSCLE AND SKIN” (Rutgers University, priority 2010, published 2014)
